Reference: publication PMC7405012, “Detection of Chaetomium globosum, Ch. cochliodes and Ch. rectangulare during the Diversity Tracking of Mycotoxin-Producing Chaetomium-like Isolates Obtained in Buildings in Finland” (Toxins, 2020)
Converted amounts (≈) assume the structure as drawn. Like-named read-outs stand apart in the source and are kept apart here.

Experiments:
Assay in all cases: Resistance to biocides: conidial germination
Type in all cases: cell-based
[1] = system: Indoor Trichoderma atroviride 14/AM; conditions: strain 14/AM
Procedure: (§1) The toxicity of biocides and chemicals towards the indoor Chaetomium-like isolates and the reference indoor strains of the genera Aspergillus, Paecilomyces, Penicillium and Trichoderma was assessed in parallel with the six parameters presented in the Supplementary Materials: (1) germ tube assay (Figure S3); (2) estimation of turbidity (Figure S4); (3) visual emission of fluorescence (excitation at 360 nm); (4) visual resporulation of conidia; (5) inhibition of glucose consumption; and (6) resazurin reduction. All assays were performed in malt extract broth (12 g L^−1 malt extract, 7.2 µmol mL^−1 glucose, pH 5.5; Scharlab, Barcelona, Spain) in 96-well microtiter plates as described for the ICP assay.
(§2) The assays measuring inhibition of germination of conidia were done with spore suspensions of 1–2 × 10^6 fungal spores mL−^1. The tests were performed in malt extract broth (Oxoid, Hampshire United Kingdom) 12 g in 1 L, pH 5.5, glucose 7.1 mmol L^−1, and performed on microtiter plates as described by Bencsik et al. for the ICP assay. The germ tube germination is visualized in Figure S3, and the tests estimating turbidity and emission of fluorescence provoked by the germinated and metabolically active conidia and C. globosum ascospores are visualized in Figures S4 and S5. Examples of the tests estimating fluorescence emission, turbidity and re-sporulation of conidia and ascospores are compared in Figure S5. The difference of the endpoints measured with the different assays was between […]. The resazurin reduction assays (Figure S6) were performed as described for the ICP assay, except that the microtiter plates were visually inspected for the change of the blue/violet color of resazurin (indicating inhibition of germination of the exposed conidia) to the […] (indicating metabolic activity and germination of the exposed conidia).
(§3) The formation of germ tubes was inspected by a phase-contrast microscope (Olympus CKX41, Tokyo, Japan; magnification 400×) and an image recording software (Cellsense® standard version 11.0.06, Olympus Soft Imaging Solutions GmbH, Münster, Germany, 2012) after 1 and 2 days of incubation at 28 °C. The EC50 corresponded to the inhibition of 50% (estimated as the concentration between EC0 and EC100) of the conidia compared to the ethanol control (the growth medium containing 1% of ethanol). The tests were run in triplicate and calibrated with triclosan (CAS: 3380-34-5; Sigma Chemical Co., St. Louis, MO, USA) giving a mean SD of ±<20%.

[2] = system: Aspergillus section Nigri Asp33b; conditions: strain Asp33b, indoor Aspergillus section Nigri
Procedure: as §1, §2, §3

[3] = system: Aspergillus calidoustus MH4; conditions: strain MH4, indoor Aspergillus calidoustus
Procedure: as §1, §2, §3

[4] = system: Aspergillus westerdijkiae AW/KL; conditions: strain AW/KL
Procedure: as §1, §2, §3

[5] = system: Penicillium sp. 20b/skk; conditions: strain 20b/skk, indoor Penicillium sp.
Procedure: as §1, §2, §3

[6] = system: Penicillium sp. HJ2; conditions: strain HJ2, indoor Penicillium sp.
Procedure: as §1, §2, §3

[7] = system: Penicillium sp. 26/skk; conditions: strain 26/skk, indoor Penicillium sp.
Procedure: as §1, §2, §3

[8] = system: Penicillium sp. 5/skk; conditions: strain 5/skk, indoor Penicillium sp.
Procedure: as §1, §2, §3

[9] = system: Paecilomyces sp. Pec1/skk; conditions: strain Pec1/skk, indoor Paecilomyces sp.
Procedure: as §1, §2, §3

[10] = system: Aspergillus westerdijkiae PP2; conditions: strain PP2, Aspergillus westerdijkiae
Procedure: as §1, §2, §3

[11] = system: Aspergillus section Nigri Asp21; conditions: strain Asp21, indoor Aspergillus section Nigri
Procedure: as §1, §2, §3

[12] = system: Aspergillus versicolor Gas/226; conditions: strain Gas/226, Aspergillus versicolor
Procedure: as §1, §2, §3

[13] = system: Penicillium sp. Vaip/skk; conditions: strain Vaip/skk, indoor Penicillium sp.
Procedure: as §1, §2, §3

[14] = system: Indoor Trichoderma atroviride KIV10; conditions: strain KIV10, indoor Trichoderma atroviride
Procedure: as §1, §2, §3

[15] = system: Trichoderma longibrachiatum THG; conditions: strain THG, indoor Trichoderma longibrachiatum
Procedure: as §1, §2, §3

[16] = system: Paecilomyces sp. Pec1/his; conditions: strain Pec1/his, indoor Paecilomyces sp.
Procedure: as §1, §2, §3

[17] = system: Aspergillus section Flavi 7D; conditions: strain 7D, indoor Aspergillus section Flavi
Procedure: as §1, §2, §3

[18] = system: Aspergillus section Flavi 1/37; conditions: strain 1/37, indoor Aspergillus section Flavi
Procedure: as §1, §2, §3

[19] = system: Paecilomyces variotii Pac1/kop; conditions: strain Pac1/kop, indoor Paecilomyces variotii
Procedure: as §1, §2, §3

[20] = system: Penicillium sp. 35/skk; conditions: strain 35/skk, indoor Penicillium sp.
Procedure: as §1, §2, §3

[21] = system: Paecilomyces variotii Pac2/kop; conditions: strain Pac2/kop, indoor Paecilomyces variotii
Procedure: as §1, §2, §3

[22] = system: Indoor Trichoderma atroviride Tri7A/SKK; conditions: strain Tri7A/SKK
Procedure: as §1, §2, §3

[23] = system: Indoor Trichoderma atroviride H1/226; conditions: strain H1/226, indoor Trichoderma atroviride
Procedure: as §1, §2, §3

[24] = system: Indoor Trichoderma atroviride Ke14; conditions: strain Ke14, indoor Trichoderma atroviride
Procedure: as §1, §2, §3

[25] = system: Aspergillus versicolor SL/3; conditions: strain SL/3, Aspergillus versicolor
Procedure: as §1, §2, §3

## OCCOc1ccccc1 [Phenoxy-ethanol, phenoxyethanol]
[1]; read-out: EC50
  EC50: 3000 µg/mL (≈ 21.7 mM)
[2]; read-out: EC50
  EC50: 3000 µg/mL (≈ 21.7 mM)
[3]; read-out: EC50
  EC50: 3200 µg/mL (≈ 23.2 mM)
[4]; read-out: EC50
  EC50: 1500 µg/mL (≈ 10.9 mM)
[5]; SP.20B/SKK, read-out: EC50
  EC50: 1500 µg/mL (≈ 10.9 mM)
[6]; read-out: EC50
  EC50: 800 µg/mL (≈ 5.79 mM)
[7]; SP.26/SKK, read-out: EC50
  EC50: 3000 µg/mL (≈ 21.7 mM)
[8]; SP.5/SKK, read-out: EC50
  EC50: 1500 µg/mL (≈ 10.9 mM)
[9]; read-out: EC50
  EC50: 3000 µg/mL (≈ 21.7 mM)
[10]; read-out: EC50
  EC50: 1500 µg/mL (≈ 10.9 mM)
[11]; read-out: EC50
  EC50: 3000 µg/mL (≈ 21.7 mM)
[12]; read-out: EC50
  EC50: 400 µg/mL (≈ 2.9 mM)
[13]; read-out: EC50
  EC50: 800 µg/mL (≈ 5.79 mM)
[14]; read-out: EC50
  EC50: 3000 µg/mL (≈ 21.7 mM)
[15]; read-out: EC50
  EC50: 1500 µg/mL (≈ 10.9 mM)
[16]; read-out: EC50
  EC50: 3000 µg/mL (≈ 21.7 mM)
[17]; FLAVI7D, read-out: EC50
  EC50: 1500 µg/mL (≈ 10.9 mM)
[18]; FLAVI1/37, read-out: EC50
  EC50: 1500 µg/mL (≈ 10.9 mM)
[19]; read-out: EC50
  EC50: 3000 µg/mL (≈ 21.7 mM)
[20]; SP.35/SKK, read-out: EC50
  EC50: 350 µg/mL (≈ 2.53 mM)
[21]; read-out: EC50
  EC50: 3000 µg/mL (≈ 21.7 mM)
[22]; read-out: EC50
  EC50: 1500 µg/mL (≈ 10.9 mM)
[23]; read-out: EC50
  EC50: 1500 µg/mL (≈ 10.9 mM)
[24]; read-out: EC50
  EC50: 1500 µg/mL (≈ 10.9 mM)
[25]; read-out: EC50
  EC50: 800 µg/mL (≈ 5.79 mM)

## O=BOB(O)OB(O)OB=O [Borax, sodium tetraborate]
[1]; read-out: EC50
  EC50: 1200 µg/mL
[2]; read-out: EC50
  EC50: ≥ 5000 µg/mL
[3]; read-out: EC50
  EC50: 5000 µg/mL
[4]; read-out: EC50
  EC50: 2500 µg/mL
[5]; SP.20B/SKK, read-out: EC50
  EC50: > 5000 µg/mL
[6]; read-out: EC50
  EC50: 2500 µg/mL
[7]; SP.26/SKK, read-out: EC50
  EC50: > 5000 µg/mL
[8]; SP.5/SKK, read-out: EC50
  EC50: 2500 µg/mL
[9]; read-out: EC50
  EC50: ≥ 5000 µg/mL
[10]; read-out: EC50
  EC50: 5000 µg/mL
[11]; read-out: EC50
  EC50: ≥ 5000 µg/mL
[12]; read-out: EC50
  EC50: 5000 µg/mL
[13]; read-out: EC50
  EC50: > 5000 µg/mL
[14]; read-out: EC50
  EC50: 2500 µg/mL
[15]; read-out: EC50
  EC50: 1200 µg/mL
[16]; read-out: EC50
  EC50: ≥ 5000 µg/mL
[17]; FLAVI7D, read-out: EC50
  EC50: 2500 µg/mL
[18]; FLAVI1/37, read-out: EC50
  EC50: 5000 µg/mL
[19]; read-out: EC50
  EC50: ≥ 5000 µg/mL
[20]; SP.35/SKK, read-out: EC50
  EC50: 5000 µg/mL
[21]; read-out: EC50
  EC50: ≥ 5000 µg/mL
[22]; read-out: EC50
  EC50: 1200 µg/mL
[23]; read-out: EC50
  EC50: 1200 µg/mL
[24]; read-out: EC50
  EC50: 1200 µg/mL
[25]; read-out: EC50
  EC50: 5000 µg/mL

## polyhexamethylene biguanide hydrochloride [PHMB]
[1]
  EC50: 4 µg/mL
[2]
  EC50: 30 µg/mL
[3]
  EC50: 8 µg/mL
[4]
  EC50: 60 µg/mL
[5]
  EC50: 30 µg/mL
[6]
  EC50: 1 µg/mL
[7]
  EC50: 30 µg/mL
[8]
  EC50: 8 µg/mL
[9]
  EC50: 16 µg/mL
[10]
  EC50: 60 µg/mL
[11]
  EC50: 30 µg/mL
[12]
  EC50: 60 µg/mL
[13]
  EC50: 8 µg/mL
[14]
  EC50: 4 µg/mL
[15]
  EC50: 1 µg/mL
[16]
  EC50: 30 µg/mL
[17]
  EC50: 120 µg/mL
[18]
  EC50: 120 µg/mL
[19]
  EC50: 30 µg/mL
[20]
  EC50: 30 µg/mL
[21]
  EC50: 30 µg/mL
[22]
  EC50: 8 µg/mL
[23]
  EC50: 2 µg/mL
[24]
  EC50: 4 µg/mL
[25]
  EC50: 60 µg/mL
